The numbers were not newly measured in patent US20260199246A1, “LUMATEPERONE PHARMACEUTICAL COMPOSITION, AND LONG-ACTING MICROSPHERE SUSTAINED-RELEASE FORMULATION AND PREPARATION METHOD THEREFOR” (SICHUAN KELUN PHARMACEUTICAL RESEARCH INSTITUTE CO., LTD., priority 2022, published 2026), which cites them from elsewhere.

For this series the following is noted: compared with risperidone.

For the compound `CN1CCN2c3c(cccc31)[C@@H]1CN(CCCC(=O)c3ccc(F)cc3)CC[C@@H]12` [Lumiperone, Lumateperone], the “reduction of the risk of weight gain” value is reported as 13%.
